Experiment [1] deals with T1, Alpha-1D adrenergic receptor (Homo sapiens, UniProt P25100).
T1 sequence (P25100 whole entry): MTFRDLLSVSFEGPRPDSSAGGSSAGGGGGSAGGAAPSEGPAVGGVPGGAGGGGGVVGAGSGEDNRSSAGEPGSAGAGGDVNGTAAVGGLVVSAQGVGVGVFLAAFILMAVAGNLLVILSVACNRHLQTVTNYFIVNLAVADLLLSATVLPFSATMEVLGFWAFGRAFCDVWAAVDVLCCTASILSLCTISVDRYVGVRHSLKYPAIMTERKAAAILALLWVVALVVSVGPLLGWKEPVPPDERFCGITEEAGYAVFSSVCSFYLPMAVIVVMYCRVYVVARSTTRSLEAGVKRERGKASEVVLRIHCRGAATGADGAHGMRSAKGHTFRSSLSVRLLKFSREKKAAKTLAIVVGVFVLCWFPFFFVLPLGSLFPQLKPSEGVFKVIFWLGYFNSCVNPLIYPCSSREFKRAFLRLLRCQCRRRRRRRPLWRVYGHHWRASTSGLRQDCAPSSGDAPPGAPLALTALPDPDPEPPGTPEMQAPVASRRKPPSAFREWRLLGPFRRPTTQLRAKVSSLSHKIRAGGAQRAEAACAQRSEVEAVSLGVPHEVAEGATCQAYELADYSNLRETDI
Put plainly: Compound was evaluated for its binding affinity to COS cell membrane expressing the human Alpha-1D adrenergic receptor. Format: cell membranes.

Experiment [2] deals with T2, Alpha-1A adrenergic receptor (Homo sapiens, UniProt P35348).
T2 sequence (P35348 whole entry): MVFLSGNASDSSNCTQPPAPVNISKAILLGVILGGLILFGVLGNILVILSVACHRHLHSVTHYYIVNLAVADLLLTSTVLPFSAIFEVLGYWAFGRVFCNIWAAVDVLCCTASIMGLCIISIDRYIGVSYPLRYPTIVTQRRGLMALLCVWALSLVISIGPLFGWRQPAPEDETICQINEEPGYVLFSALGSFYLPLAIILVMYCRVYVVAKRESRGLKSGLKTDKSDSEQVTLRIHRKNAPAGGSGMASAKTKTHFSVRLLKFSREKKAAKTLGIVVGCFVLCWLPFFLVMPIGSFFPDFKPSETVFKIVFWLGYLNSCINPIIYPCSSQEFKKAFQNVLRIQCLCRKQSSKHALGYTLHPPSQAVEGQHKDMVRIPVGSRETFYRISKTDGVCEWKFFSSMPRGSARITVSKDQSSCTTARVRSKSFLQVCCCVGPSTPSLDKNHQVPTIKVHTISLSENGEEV
Put plainly: Compound was evaluated for its binding affinity to COS cell membrane expressing the human Alpha-1A adrenergic receptor. Format: cell membranes.

In experiment [3] the target is T3, Alpha-1B adrenergic receptor (Homo sapiens, UniProt P35368).
T3 sequence (P35368 whole entry): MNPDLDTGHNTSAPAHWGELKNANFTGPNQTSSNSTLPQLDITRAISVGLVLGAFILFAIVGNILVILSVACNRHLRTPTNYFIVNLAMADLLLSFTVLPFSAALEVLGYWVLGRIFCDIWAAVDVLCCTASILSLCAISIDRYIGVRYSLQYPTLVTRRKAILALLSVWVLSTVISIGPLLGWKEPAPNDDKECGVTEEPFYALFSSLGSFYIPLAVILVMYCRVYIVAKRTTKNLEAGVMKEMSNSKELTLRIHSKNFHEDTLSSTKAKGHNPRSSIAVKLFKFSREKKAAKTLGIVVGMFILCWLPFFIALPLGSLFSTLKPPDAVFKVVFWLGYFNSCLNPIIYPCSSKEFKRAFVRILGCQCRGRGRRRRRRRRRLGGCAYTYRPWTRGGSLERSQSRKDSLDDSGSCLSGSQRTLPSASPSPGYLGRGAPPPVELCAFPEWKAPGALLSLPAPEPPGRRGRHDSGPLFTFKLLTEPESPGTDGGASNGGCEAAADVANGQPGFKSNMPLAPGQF
Put plainly: Compound was evaluated for its binding affinity towards COS cell membrane expressing the human Alpha-1B adrenergic receptor. Format: cell membranes.

In experiment [4] the target is Adrenergic receptors; alpha-1 A & B (Homo sapiens) (UniProt P35348+P35368). Kind of experiment: Ratio of binding affinity of compound to human adrenergic receptor alpha-1b to that of human adrenergic receptor alpha-1a. Format: protein assay.
The target of experiment [5] is Alpha adrenergic receptor (1a and 1d) (Homo sapiens) (UniProt P35348+P25100). Kind of experiment: Ratio of binding affinity of compound to human adrenergic receptor alpha-1d to that of human adrenergic receptor alpha-1a. Format: protein assay.

Regarding `CC(C)Oc1ccccc1N1CCN(Cc2cc(CN3CCCCC3=O)n[nH]2)CC1`, the Ki is 177 nM in experiment [1], 2.1 nM in experiment [2] and 3920 nM in experiment [3]. The results for the Ratio in experiment [4] and in experiment [5] were 1860 and 84, respectively.

Take `CC(C)Oc1ccccc1N1CCN(Cc2cc(CN3CCCCC3=O)nn2C)CC1`: the Ki stood at 44 nM in experiment [1], 9 nM in experiment [2] and 2770 nM in experiment [3]. Moreover, the Ratio was 308 in experiment [4] and 5 in experiment [5].

For the compound `CC(C)Oc1ccccc1N1CCN(Cc2cc(CN3CCCCC3=O)nc(N)n2)CC1`, the Ki in experiment [1] is above 10000 nM; in experiment [2], 79 nM; in experiment [3], above 10000 nM. The Ratio in experiment [4] and in experiment [5] was above 127 throughout.

For the compound `CC(C)Oc1ccccc1N1CCN(Cc2cc(CN3CCCCC3=O)n(C)n2)CC1`, the inhibition constant (Ki) was found to be 52 nM in experiment [1], 3.7 nM in experiment [2] and 3080 nM in experiment [3]. Moreover, the Ratio is 832 in experiment [4] and 14 in experiment [5].

Take `CC(C)Oc1ccccc1N1CCN(Cc2cc(CN3CCCCC3=O)on2)CC1`: the inhibitory constant (Ki) was 272 nM in experiment [1], 3.8 nM in experiment [2] and 4460 nM in experiment [3]. The Ratio in experiment [4] worked out at 1170; in experiment [5], 72.

Take `CC(C)Oc1ccccc1N1CCN(CC2=NOC(CN3CCCCC3=O)C2)CC1` (stereo not given): the Ki in experiment [1] is 1520 nM; in experiment [2], 89 nM; in experiment [3], above 10000 nM. For the same compound, the Ratio is above 112 in experiment [4] and 17 in experiment [5].

One may read the Ki as a measure of affinity in units of concentration, obtained from inhibition or displacement. High values mean a looser hold on the target, low ones a stronger hold on the target.

The record behind these values is ChEMBL document CHEMBL1132787, “Novel heterocycles as selective alpha1-adrenergic receptor antagonists” (Bioorg Med Chem Lett, 2000).
